The values below come from patent US12673975B2, “Cyclic peptide, cell scaffold material, cell separating material, and medium” (FUJIFILM Corporation, priority 2019, dated 2026).

Like-named read-outs stand apart in the source and are kept apart here. Starred links: 1 amine or outer side, 2 acyl side, 3 side chain; linkers in the order of their positions; H or OH if unused. Positions of bridges follow the written chain, without caps; N, C: chain ends. Non-standard residues stand in square brackets, D forms with d. Residues, ends and D or L forms follow the SMILES beside them. Pen = CC(C)(S)[C@H](N)C(=O)O; hCys = N[C@@H](CCS)C(=O)O; Orn = NCCC[C@H](N)C(=O)O; Dab = NCC[C@H](N)C(=O)O; Dap = NC[C@H](N)C(=O)O; X1 = O=C(C[*:2])[*:1]; X2 = O=C(C[*:1])[*:2]

One data set addresses human integrin αvβ5 (Homo sapiens, UniProt P06756+P18084). In words: Evaluation of integrin binding property (surface plasmon resonance, Biacore 3000, immobilized cyclic peptide). The method in brief:
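SPR with cyclic peptide amine-coupled via EDC/NHS to a CM5 chip, blank channel as reference. Integrin αvβ5 at 30, 100, 300 and 1,000 nM injected 10 min at 25 °C in HEPES buffer pH 7.4 with 5 mM MgCl2, 30 min buffer flow, EDTA regeneration; Kd from reference-subtracted signals, graded by category.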

A short description of data set [1]: Evaluation of molecule stability (alkali treatment, residual rate by LC/MS). It is filed as physicochemical. The following applies: for Performance evaluation: Stability (residual rate of cyclic peptide after alkali treatment): 500 μM peptide aqueous solution plus equivalent of 1 M sodium hydroxide, 15° C., 3 hours, LC/MS peak area; for Stability (molecule stability, residual rate of the cyclic peptide rank): alkali treatment, residual rate by LC/MS. The method in brief:
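500 μM aqueous cyclic peptide mixed with an equal volume of 1 M NaOH and held 3 h at 15 °C. Residual rate is total LC/MS peak area after treatment relative to untreated (100%), using a C18 column, pH 3 ammonium formate/acetonitrile gradient, 45 °C, ESI±.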

Where [2] appears, read: SPR, 25° C., HEPES buffer with 5 mM magnesium chloride, integrin 30-1,000 nM, read-out: Performance evaluation: Binding activity (dissociation constant between the cyclic peptide and human integrin αvβ5).
[3] abbreviates: surface plasmon resonance, immobilized cyclic peptide, human integrin αvβ5, read-out: Binding activity (integrin binding property, dissociation constant rank).

Chain of human integrin αvβ5 (P06756 31-1048): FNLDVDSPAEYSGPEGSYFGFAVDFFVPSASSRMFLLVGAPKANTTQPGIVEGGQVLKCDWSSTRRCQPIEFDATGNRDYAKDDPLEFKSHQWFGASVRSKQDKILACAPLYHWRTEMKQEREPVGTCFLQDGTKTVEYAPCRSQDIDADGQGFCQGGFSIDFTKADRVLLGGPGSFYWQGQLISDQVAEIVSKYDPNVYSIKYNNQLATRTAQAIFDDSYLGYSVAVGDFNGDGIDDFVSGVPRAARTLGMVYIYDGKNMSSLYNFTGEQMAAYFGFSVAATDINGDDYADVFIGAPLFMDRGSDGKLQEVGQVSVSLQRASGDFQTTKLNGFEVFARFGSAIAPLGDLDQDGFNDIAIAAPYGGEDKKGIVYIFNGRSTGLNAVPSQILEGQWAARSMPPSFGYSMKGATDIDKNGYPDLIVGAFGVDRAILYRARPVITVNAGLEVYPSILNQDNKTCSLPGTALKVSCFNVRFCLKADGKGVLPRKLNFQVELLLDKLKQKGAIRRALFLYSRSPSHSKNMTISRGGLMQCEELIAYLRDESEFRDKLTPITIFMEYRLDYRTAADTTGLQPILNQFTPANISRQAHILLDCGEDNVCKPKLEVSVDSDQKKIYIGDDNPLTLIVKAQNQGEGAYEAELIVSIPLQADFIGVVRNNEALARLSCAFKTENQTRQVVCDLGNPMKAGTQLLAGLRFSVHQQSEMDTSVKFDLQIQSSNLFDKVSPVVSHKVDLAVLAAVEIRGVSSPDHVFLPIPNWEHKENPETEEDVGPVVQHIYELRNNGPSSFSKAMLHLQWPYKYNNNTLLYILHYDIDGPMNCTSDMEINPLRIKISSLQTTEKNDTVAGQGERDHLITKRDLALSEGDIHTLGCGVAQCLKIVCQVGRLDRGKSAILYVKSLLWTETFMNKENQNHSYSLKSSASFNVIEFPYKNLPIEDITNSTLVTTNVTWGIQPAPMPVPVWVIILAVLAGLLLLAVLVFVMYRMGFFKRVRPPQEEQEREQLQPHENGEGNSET
Chain of human integrin αvβ5 (P18084 24-799): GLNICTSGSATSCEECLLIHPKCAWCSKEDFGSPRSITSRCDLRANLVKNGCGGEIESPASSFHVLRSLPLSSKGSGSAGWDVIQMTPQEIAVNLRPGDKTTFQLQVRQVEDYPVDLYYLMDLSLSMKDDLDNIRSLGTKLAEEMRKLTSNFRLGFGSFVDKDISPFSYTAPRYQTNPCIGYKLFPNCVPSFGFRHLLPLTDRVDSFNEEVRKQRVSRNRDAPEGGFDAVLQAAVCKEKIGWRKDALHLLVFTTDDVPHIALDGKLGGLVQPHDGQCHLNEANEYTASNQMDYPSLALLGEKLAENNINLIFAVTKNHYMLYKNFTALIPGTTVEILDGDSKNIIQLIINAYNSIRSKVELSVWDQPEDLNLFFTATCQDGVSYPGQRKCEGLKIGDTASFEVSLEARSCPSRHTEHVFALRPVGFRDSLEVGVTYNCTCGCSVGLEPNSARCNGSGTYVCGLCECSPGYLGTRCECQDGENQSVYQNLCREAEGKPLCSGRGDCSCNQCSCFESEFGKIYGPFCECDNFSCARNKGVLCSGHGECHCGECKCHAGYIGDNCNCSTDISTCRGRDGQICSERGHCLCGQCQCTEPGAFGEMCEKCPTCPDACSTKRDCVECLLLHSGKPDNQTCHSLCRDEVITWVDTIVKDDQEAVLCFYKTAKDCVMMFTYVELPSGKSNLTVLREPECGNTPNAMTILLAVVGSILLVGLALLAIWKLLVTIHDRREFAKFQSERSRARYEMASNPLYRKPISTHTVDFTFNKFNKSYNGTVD

`C[C@H](NC(=O)[C@@H]1CCNC(=O)CSCC[C@H](NC(=O)[C@H](CCCCN)NC(=O)[C@H](CCCCN)NC(=O)[C@@H](N)CCCCN)C(=O)N[C@@H](CC(=O)O)C(=O)N2CCC[C@H]2C(=O)N[C@@H](CCCNC(=N)N)C(=O)NCC(=O)N[C@@H](CC(=O)O)C(=O)N[C@@H](CC(N)=O)C(=O)N[C@@H](Cc2ccccc2)C(=O)N[C@@H](CCCNC(=N)N)C(=O)N1)C(=O)O` [Cyclic peptide 22, KKK-(Hcy)-DPRGDNFR(Dab(acetyl))A] (H-KKK[hCys]DPRGDNFR[Dab]A-OH; linker 4-13 via X2): the Kd at human integrin αvβ5 (setting [2]) is 50 to 100 nM. Moreover, the “Performance evaluation: Stability (residual rate of cyclic peptide after alkali treatment)” value in data set [1] is recorded as “A (The residual rate of the cyclic peptide is 70% or more.)”.

As for `CC(C)[C@@H]1NC(=O)[C@H](CC(=O)O)NC(=O)CNC(=O)[C@H](CCCNC(=N)N)NC(=O)[C@@H]2CCCN2C(=O)[C@H](C(C)C)NC(=O)[C@@H](NC(=O)[C@H](CCCCN)NC(=O)[C@H](CCCCN)NC(=O)[C@@H](N)CCCCN)CCSCC(=O)NCC[C@@H](C(=O)O)NC(=O)[C@H](C)NC(=O)[C@H](Cc2ccccc2)NC1=O` [Cyclic peptide 151, KKK-(Hcy)-VPRGDVFA(Dab(acetyl))] (H-KKK[hCys]VPRGDVFA[Dab]-OH; linker 4-13 via X2), the Kd at human integrin αvβ5 (setting [3]) was under 50 nM. In addition, the “Stability (molecule stability, residual rate of the cyclic peptide rank)” value in data set [1] is “A (The residual rate of the cyclic peptide is 70% or more.)”.

Turning to `CC[C@H](C)[C@@H]1NC(=O)[C@@H](NC(=O)CNC(=O)[C@H](CCCCN)NC(=O)[C@H](CCCCN)NC(=O)[C@@H](N)CCCCN)CCCNC(=O)CSC(C)(C)[C@@H](C(=O)N[C@@H](C)C(=O)O)NC(=O)[C@H](CCCNC(=N)N)NC(=O)[C@H](Cc2ccccc2)NC(=O)[C@H]([C@@H](C)O)NC(=O)[C@H](CC(=O)O)NC(=O)CNC(=O)[C@H](CCCNC(=N)N)NC(=O)[C@@H]2CCCN2C1=O` [Cyclic peptide 134, KKKG(Orn(acetyl))IPRGDTFR-(Pen)-A] (H-KKKG[Orn]IPRGDTFR[Pen]A-OH; linker 5-14 via X1), the Kd on human integrin αvβ5 (setting [3]) is under 50 nM. Moreover, in data set [1], the “Stability (molecule stability, residual rate of the cyclic peptide rank)” value was “A (The residual rate of the cyclic peptide is 70% or more.)”.

Regarding `CC[C@H](C)[C@@H]1NC(=O)[C@H](C)NC(=O)[C@H](C)NC(=O)[C@@H](NC(=O)[C@H](CCCCN)NC(=O)[C@H](CCCCN)NC(=O)[C@@H](N)CCCCN)CCSCC(=O)NCC[C@@H](C(=O)N[C@@H](C)C(=O)O)NC(=O)[C@H](CCCNC(=N)N)NC(=O)[C@H](Cc2ccccc2)NC(=O)[C@H](CC(N)=O)NC(=O)[C@H](CC(=O)O)NC(=O)CNC(=O)[C@H](CCCNC(=N)N)NC(=O)[C@@H]2CCCN2C1=O` [Cyclic peptide 18, KKK-(Hcy)-AAIPRGDNFR(Dab(acetyl))A] (H-KKK[hCys]AAIPRGDNFR[Dab]A-OH; linker 4-15 via X2), at human integrin αvβ5 (setting [2]), the Kd fell in the range of 50 to 100 nM. In data set [1], the “Performance evaluation: Stability (residual rate of cyclic peptide after alkali treatment)” value was “A (The residual rate of the cyclic peptide is 70% or more.)”.

As for `N=C(N)NCCC[C@@H]1NC(=O)[C@H](Cc2ccc(O)cc2)NC(=O)[C@H](CC(N)=O)NC(=O)[C@H](CC(=O)O)NC(=O)CNC(=O)[C@H](CCCNC(=N)N)NC(=O)[C@@H]2CCCN2C(=O)[C@H](CCC(=O)O)NC(=O)[C@@H](NC(=O)[C@H](CCCCN)NC(=O)[C@H](CCCCN)NC(=O)[C@@H](N)CCCCN)CCSCC(=O)NCC[C@@H](C(=O)O)NC1=O` [Cyclic peptide 44, KKK-(Hcy)-EPRGDNYR(Dab(acetyl))] (H-KKK[hCys]EPRGDNYR[Dab]-OH; linker 4-13 via X2), the Kd on human integrin αvβ5 (setting [2]) lay in the range of 50 to 100 nM. Further, the “Performance evaluation: Stability (residual rate of cyclic peptide after alkali treatment)” value in data set [1] is listed as “A (The residual rate of the cyclic peptide is 70% or more.)”.

With `C[C@H](NC(=O)[C@@H]1CCNC(=O)CSCC[C@H](NC(=O)[C@H](CCCCN)NC(=O)[C@H](CCCCN)NC(=O)[C@@H](N)CCCCN)C(=O)N[C@@H](CCC(=O)O)C(=O)N2CCC[C@H]2C(=O)N[C@@H](CCCNC(=N)N)C(=O)NCC(=O)N[C@@H](CC(=O)O)C(=O)N[C@@H](CC(N)=O)C(=O)N[C@@H](Cc2ccccc2)C(=O)N[C@@H](CCCNC(=N)N)C(=O)N1)C(=O)O` [Cyclic peptide 23, KKK-(Hcy)-EPRGDNFR(Dab(acetyl))A] (H-KKK[hCys]EPRGDNFR[Dab]A-OH; linker 4-13 via X2), the Kd at human integrin αvβ5 (setting [2]) was under 50 nM. In data set [1], the “Performance evaluation: Stability (residual rate of cyclic peptide after alkali treatment)” value is reported as “A (The residual rate of the cyclic peptide is 70% or more.)”.

As to `CC[C@H](C)[C@@H]1NC(=O)[C@@H](NC(=O)CNC(=O)[C@H](CCCCN)NC(=O)[C@H](CCCCN)NC(=O)[C@@H](N)CCCCN)CCSCC(=O)NCCC[C@@H](C(=O)N[C@@H](C)C(=O)O)NC(=O)[C@H](CCCNC(=N)N)NC(=O)[C@H](Cc2ccccc2)NC(=O)[C@H]([C@@H](C)O)NC(=O)[C@H](CC(=O)O)NC(=O)CNC(=O)[C@H](CCCNC(=N)N)NC(=O)[C@@H]2CCCN2C1=O` [Cyclic peptide 115, KKKG-(Hcy)-IPRGDTFR(Orn(acetyl))A] (H-KKKG[hCys]IPRGDTFR[Orn]A-OH; linker 5-14 via X2), at human integrin αvβ5 (setting [3]), the Kd was under 50 nM. The “Stability (molecule stability, residual rate of the cyclic peptide rank)” value in data set [1] is “A (The residual rate of the cyclic peptide is 70% or more.)”.

Consider `CC[C@H](C)[C@@H]1NC(=O)[C@@H](NC(=O)CNC(=O)[C@H](CCCCN)NC(=O)[C@H](CCCCN)NC(=O)[C@@H](N)CCCCN)CNC(=O)CSC(C)(C)[C@@H](C(=O)N[C@@H](C)C(=O)O)NC(=O)[C@H](CCCNC(=N)N)NC(=O)[C@H](Cc2ccccc2)NC(=O)[C@H]([C@@H](C)O)NC(=O)[C@H](CC(=O)O)NC(=O)CNC(=O)[C@H](CCCNC(=N)N)NC(=O)[C@@H]2CCCN2C1=O` [Cyclic peptide 132, KKKG(Dap(acetyl))IPRGDTFR-(Pen)-A] (H-KKKG[Dap]IPRGDTFR[Pen]A-OH; linker 5-14 via X1), for which, on human integrin αvβ5 (setting [3]), the Kd was under 50 nM. The “Stability (molecule stability, residual rate of the cyclic peptide rank)” value in data set [1] is recorded as “A (The residual rate of the cyclic peptide is 70% or more.)”.

On to `C[C@H](NC(=O)[C@H](CCCCN)NC(=O)[C@H](CCCCN)NC(=O)[C@@H](N)CCCCN)C(=O)N[C@H]1CNC(=O)CSCC[C@@H](C(=O)N[C@@H](CC(=O)O)C(=O)O)NC(=O)[C@H](CCCNC(=N)N)NC(=O)[C@H](Cc2ccc(O)cc2)NC(=O)[C@H](CC(N)=O)NC(=O)[C@H](CC(=O)O)NC(=O)CNC(=O)[C@H](CCCNC(=N)N)NC(=O)[C@@H]2CCCN2C(=O)[C@H](CCC(=O)O)NC1=O` [Cyclic peptide 48, KKKA(Dap(acetyl))EPRGDNYR-(Hcy)-D] (H-KKKA[Dap]EPRGDNYR[hCys]D-OH; linker 5-14 via X1), for which the Kd at human integrin αvβ5 (setting [2]) is under 50 nM. Moreover, the “Performance evaluation: Stability (residual rate of cyclic peptide after alkali treatment)” value in data set [1] is “B (The residual rate of the cyclic peptide is 50% or more and less than 70%.)”.

As for `CC[C@H](C)[C@@H]1NC(=O)[C@@H](NC(=O)CNC(=O)[C@H](CCCCN)NC(=O)[C@H](CCCCN)NC(=O)[C@@H](N)CCCCN)CCSCC(=O)NCC[C@@H](C(=O)N[C@@H](C)C(=O)O)NC(=O)[C@H](C)NC(=O)[C@H](Cc2ccccc2)NC(=O)[C@H](CO)NC(=O)[C@H](CC(=O)O)NC(=O)CNC(=O)[C@H](CCCNC(=N)N)NC(=O)[C@@H]2CCCN2C1=O` [Cyclic peptide 94, KKKG-(Hcy)-IPRGDSFA(Dab(acetyl))A] (H-KKKG[hCys]IPRGDSFA[Dab]A-OH; linker 5-14 via X2), at human integrin αvβ5 (setting [2]), the Kd is under 50 nM. Besides, the “Performance evaluation: Stability (residual rate of cyclic peptide after alkali treatment)” value in data set [1] was “A (The residual rate of the cyclic peptide is 70% or more.)”.

As to `CC(C)[C@@H]1NC(=O)[C@@H](NC(=O)[C@H](C)NC(=O)[C@H](CCCCN)NC(=O)[C@H](CCCCN)NC(=O)[C@H](CCCCN)NC(=O)[C@H](CCCCN)NC(=O)[C@@H](N)CCCCN)CCSCC(=O)NCC[C@@H](C(=O)N[C@@H](C)C(=O)O)NC(=O)[C@H](C)NC(=O)[C@H](Cc2ccccc2)NC(=O)[C@H]([C@@H](C)O)NC(=O)[C@H](CC(=O)O)NC(=O)CNC(=O)[C@H](CCCNC(=N)N)NC(=O)[C@@H]2CCCN2C1=O` [Cyclic peptide 111, KKKKKA-(Hcy)-VPRGDTFA(Dab(acetyl))A] (H-KKKKKA[hCys]VPRGDTFA[Dab]A-OH; linker 7-16 via X2), the Kd on human integrin αvβ5 (setting [3]) was under 50 nM. Moreover, in data set [1], the “Stability (molecule stability, residual rate of the cyclic peptide rank)” value is recorded as “A (The residual rate of the cyclic peptide is 70% or more.)”.

Take `N=C(N)NCCC[C@@H]1NC(=O)[C@H](Cc2ccc(O)cc2)NC(=O)[C@H](CC(N)=O)NC(=O)[C@H](CC(=O)O)NC(=O)CNC(=O)[C@H](CCCNC(=N)N)NC(=O)[C@@H]2CCCN2C(=O)[C@H](CCC(=O)O)NC(=O)[C@@H](NC(=O)[C@H](CCCCN)NC(=O)[C@H](CCCCN)NC(=O)[C@@H](N)CCCCN)CCSCC(=O)NCC[C@@H](C(N)=O)NC1=O` [Cyclic peptide 49, KKK-(Hcy)-EPRGDNYR(Dab(acetyl))] (H-KKK[hCys]EPRGDNYR[Dab]-NH2; linker 4-13 via X2): the Kd on human integrin αvβ5 (setting [2]) is 50 to 100 nM. In addition, the “Performance evaluation: Stability (residual rate of cyclic peptide after alkali treatment)” value in data set [1] is listed as “A (The residual rate of the cyclic peptide is 70% or more.)”.

Take `CC(C)[C@@H]1NC(=O)[C@@H](NC(=O)[C@H](CCCCN)NC(=O)[C@H](CCCCN)NC(=O)[C@@H](N)CCCCN)CCNC(=O)CSC[C@@H](C(=O)O)NC(=O)[C@H](C)NC(=O)[C@H](Cc2ccccc2)NC(=O)[C@H]([C@@H](C)O)NC(=O)[C@H](CC(=O)O)NC(=O)CNC(=O)[C@H](CCCNC(=N)N)NC(=O)[C@@H]2CCCN2C1=O` [Cyclic peptide 141, KKK(Dab(acetyl))VPRGDTFA(C)] (H-KKK[Dab]VPRGDTFAC-OH; linker 4-13 via X1): the Kd at human integrin αvβ5 (setting [3]) is under 50 nM. Besides, the “Stability (molecule stability, residual rate of the cyclic peptide rank)” value in data set [1] was “C (The residual rate of the cyclic peptide is 30% or more and less than 50%.)”.
